Test results reported in US12059422B2 (MEI Pharma, Inc., priority 2011, dated 2024).

Tests used:
[1] = molecular target: T1, PI3Kδ (Homo sapiens, UniProt O00329); assay: ELISA assay for PI3Kδ: sandwich ELISA, phosphorylation of AKT (Thr308) in Raji cells; assay type: cell-based; conditions: cellular, pAKT (Thr308), Raji cells, anti-Human IgM stimulation; read-out: IC50 p110δ
T1 construct: endogenous in cells; host or cells: Raji (ATCC #CCL-86)
Procedure: Cellular PI3Kδ activity was determined by measuring the phosphorylation of AKT (Thr308) using a sandwich enzyme-linked immunosorbant assay (ELISA). Raji (Burkitt's Lymphoma) cells were obtained from ATCC (ATCC #CCL-86). Phosphate buffer saline (PBS) contained 2.7 M NaCl, 54 mM KCl, 86 mM […] (dibasic, anhydrous), and 28 mM […] (monobasic, anhydrous) at pH 7.2. Wash buffer contained PBS supplemented with 0.05% Tween-20. Blocking buffer contained wash buffer supplemented with 1% BSA. A 10× stimulation mixture contained 5 μg/mL anti-Human IgM antibody (Sigma #12386) diluted in serum-free RPMI medium (CellGro #CV-10-040-CV). Compounds for testing were dissolved and serially diluted in 100% DMSO (total of 10 concentrations), and then diluted in serum-free RPMI to 5×final assay concentration.
Raji cells were subcultured in RPMI medium supplemented with 10% fetal bovine serum, 100 IU/mL penicillin, 100 μg/mL streptomycin, and 1×MEM non-essential amino acids. Sandwich ELISA plates were prepared by coating 96-well assay plates (Pierce #15042) with 100 μL/well capture antibody (Cell Signaling Technology #7142 or 7144) diluted in PBS. Plates were incubated overnight at 4° C., then washed with wash buffer, after which 200 μL/well blocking buffer was added to the plates and incubated at room temperature for at least 2 hrs. Raji cells were resuspended in serum-free RPMI medium and seeded into V-bottom, 2-mL 96-well blocks (Corning #3961) at 10^6 cells/well, then incubated for 2 hrs in a 37° C., 5% CO2 incubator. Compound treatment was performed by adding the 5× compound mixture to the cells and incubating for 2 hrs at 37° C., 5% CO2, after which the 10× stimulation mixture was added to the plates and incubated for 30 min at 37° C., 5% CO2. Cells were pelleted by centrifuging plates at 1500 RPM for 5 min at room temperature. Media was carefully removed and cells were lysed by adding 100 μL/well cell lysis buffer (Cell Signaling Technology #9803) supplemented with protease and phosphatase inhibitors (Thermo Fisher #78443). Plates were incubated on ice for 30 min, then the lysates (80 μL for pAKT^T308, 10 μL for total AKT) were transferred to prepared assay plates and incubated at 4° C. overnight. After washing plates with wash buffer, 100 μL/well detection antibody (Cell Signaling Technology #7142 or 7144) diluted in blocking buffer was added to the plates and incubated for 1 hr at 37° C. Plates were washed and 100 μL/well of HRP-conjugated secondary antibody (Cell Signaling Technology #7142 or 7144) diluted in blocking buffer was added to plates and incubated for 1 hr at room temperature. Plates were washed with wash buffer and 100 μL/well of luminescent substrate was added to plates. After 1 min on a plate shaker at medium speed, luminescence was read on a Wallac Victor2 plate reader. IC50 values were determined by curve fitting using a Collaborative Drug Discovery database (www.collaborativedrug.com).

[2] = molecular target: T2, PI3K delta (Homo sapiens, UniProt O00329); assay: Luciferase-based luminescence assay (KinaseGlo), PI3K delta enzymatic activity; assay type: biochemical; conditions: for IC50: inhibition of enzymatic activity, KinaseGlo, 25 μM ATP, read-out: IC50 p110δ; for α/δ ratio: ratio of enzymatic IC50 against PI3Kα over IC50 against PI3Kδ; for β/δ ratio / γ/δ ratio: ratio of enzymatic IC50 values, Table 1
T2 construct: purchased Millipore, Billerica, MA, USA
Procedure: (§1) PI3K catalyzes the conversion of phosphatidylinositol-4,5-bisphosphate (PIP2) and ATP to phosphatidylinositol-3,4,5-trisphosphate (PIP3) and ADP. For all assays, the reaction buffer comprised 50 mM HEPES, pH 7.5, 3 mM MgCl2, 1 mM EGTA, 100 mM NaCl, 0.03% CHAPS and 2 mM DTT. Compounds for testing were dissolved and serially diluted in 100% DMSO (total of 10 concentrations), then diluted 1:25 in reaction buffer.
(§2) PI3K alpha and PI3K delta enzymatic activity was determined by measuring the amount of ATP consumed following the kinase reaction using a luciferase-based luminescence assay (KinaseGlo®, Promega Corp., Madison, WI, USA). PI3K enzyme solutions were prepared by diluting PI3K alpha (Invitrogen Corp., Carlsbad, CA, USA) or PI3K delta (Millipore, Billerica, MA, USA) in reaction buffer, to 4× the final assay concentration (final concentrations of enzymes were 1.65 nM and 6.86 nM for PI3K alpha and PI3K delta, respectively). A substrate solution was prepared by mixing PIP2 and ATP in reaction buffer at 2× the final assay concentration (final concentrations were 50 μM and 25 μM for PIP2 and ATP respectively). 2.5 μL each of the compound and kinase mixtures were added to individual wells of white low volume 384-well assay plates and mixed by shaking. The reactions were started by adding 5 μL of substrate mixture per well and shaking. The assay plates were covered and reactions were allowed to proceed for 1 hour (PI3K alpha) or 2 hours (PI3K delta), after which 10 μL of Kinase Glo® reagent was added. The plates were briefly centrifuged and incubated for 10 minutes, after which luminescence was measured using a FlexStation plate reader (Molecular Devices, Sunnyvale, CA, USA). IC50 values were determined by curve fitting using Graphpad Prism software (Graphpad Software, La Jolla, CA, USA).

[3] = molecular target: mTOR (Homo sapiens, UniProt P42345); assay: mTOR inhibition (Table 1); assay type: biochemical; conditions: Table 1, no method described
[4] = molecular target: T3, PI3K gamma (Homo sapiens, UniProt P48736); assay: Luciferase-based luminescence assay (ADP Glo), PI3K gamma enzymatic activity; assay type: biochemical; conditions: inhibition of enzymatic activity, 25 μM ATP, read-out: IC50 p110γ
T3 construct: purchased Invitrogen Corp., Carlsbad, CA, USA
Procedure: as §1
(§3) PI3K beta and gamma enzymatic activity was determined by measuring the amount of ADP produced following the kinase reaction using a luciferase-based luminescence assay (ADP Glo®, Promega Corp., Madison, WI, USA). PI3K enzyme solutions were prepared by diluting PI3K beta (Millipore, Billerica, MA, USA) or PI3K gamma (Invitrogen Corp., Carlsbad, CA, USA) in reaction buffer, to 4× the final assay concentration (final concentrations of enzymes were 4.8 nM and 7.6 nM for PI3K beta and PI3K gamma respectively). A substrate solution was prepared by mixing PIP2 and ATP in reaction buffer at 2× the final assay concentration (final concentrations were 50 μM and 25 μM for PIP2 and ATP respectively). 2.5 μL each of the compound and kinase mixtures were added to individual wells of white low volume 384-well assay plates and mixed by shaking. The reactions were started by adding 5 μL of substrate mixture per well and shaking. The assay plates were covered and reactions were allowed to proceed for 1 hour. Then, 5 μL of reaction mix was transferred to another white low volume 384-well plate, and 5 μL of ADP-Glo™ reagent was added. The plates were briefly centrifuged and incubated for 40 minutes, after which 10 μL of kinase detection buffer was added. The plates then were centrifuged briefly, shaken slowly and equilibrated at room temperature for 30 minutes, after which luminescence was measured using a FlexStation plate reader (Molecular Devices, Sunnyvale, CA, USA). IC50 values were determined by curve fitting using Graphpad Prism software (Graphpad Software, La Jolla, CA, USA).

[5] = molecular target: T4, PI3K beta (Homo sapiens, UniProt P42338); assay: Luciferase-based luminescence assay (ADP Glo), PI3K beta enzymatic activity; assay type: biochemical; conditions: for IC50: inhibition of enzymatic activity, ADP Glo, 25 μM ATP, read-out: IC50 p110β; for α/β ratio: ratio of enzymatic IC50 values, Table 1
T4 construct: purchased Millipore, Billerica, MA, USA
Procedure: as §1, §3

[6] = molecular target: T5, PI3K alpha (Homo sapiens, UniProt P42336); assay: Luciferase-based luminescence assay (KinaseGlo), PI3K alpha enzymatic activity; assay type: biochemical; conditions: inhibition of enzymatic activity, 25 μM ATP, read-out: IC50 p110α
T5 construct: purchased Invitrogen Corp., Carlsbad, CA, USA
Procedure: as §1, §2

T4 sequence (P42338 whole entry, species assumed): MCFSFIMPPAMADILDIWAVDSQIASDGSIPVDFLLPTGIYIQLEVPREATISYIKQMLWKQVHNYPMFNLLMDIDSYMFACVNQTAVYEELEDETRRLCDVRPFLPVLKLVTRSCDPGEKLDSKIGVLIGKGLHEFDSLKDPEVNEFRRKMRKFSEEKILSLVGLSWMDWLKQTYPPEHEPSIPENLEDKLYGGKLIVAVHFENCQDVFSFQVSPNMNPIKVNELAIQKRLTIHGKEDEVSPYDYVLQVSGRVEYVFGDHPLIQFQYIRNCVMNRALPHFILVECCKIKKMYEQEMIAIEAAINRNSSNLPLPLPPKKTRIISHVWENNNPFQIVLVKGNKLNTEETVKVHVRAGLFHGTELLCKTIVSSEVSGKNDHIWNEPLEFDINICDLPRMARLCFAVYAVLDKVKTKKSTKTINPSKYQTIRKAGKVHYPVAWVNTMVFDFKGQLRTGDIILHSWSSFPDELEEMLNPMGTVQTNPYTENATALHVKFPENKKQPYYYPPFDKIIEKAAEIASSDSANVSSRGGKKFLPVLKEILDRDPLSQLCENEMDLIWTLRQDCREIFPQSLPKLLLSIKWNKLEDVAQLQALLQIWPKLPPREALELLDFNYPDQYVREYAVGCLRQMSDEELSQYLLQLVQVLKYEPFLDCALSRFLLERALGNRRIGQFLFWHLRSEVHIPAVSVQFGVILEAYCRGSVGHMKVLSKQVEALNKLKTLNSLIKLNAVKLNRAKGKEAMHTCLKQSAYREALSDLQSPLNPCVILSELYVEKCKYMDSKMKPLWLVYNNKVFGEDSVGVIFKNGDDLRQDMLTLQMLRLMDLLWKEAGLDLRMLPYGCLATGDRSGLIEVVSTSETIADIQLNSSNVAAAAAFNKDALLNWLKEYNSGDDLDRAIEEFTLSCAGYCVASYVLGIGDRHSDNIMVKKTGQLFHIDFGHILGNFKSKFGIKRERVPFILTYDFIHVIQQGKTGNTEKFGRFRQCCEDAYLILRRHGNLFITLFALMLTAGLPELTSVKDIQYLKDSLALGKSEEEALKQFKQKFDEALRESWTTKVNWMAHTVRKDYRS
T4 sequence (P27986 whole entry partner, species assumed): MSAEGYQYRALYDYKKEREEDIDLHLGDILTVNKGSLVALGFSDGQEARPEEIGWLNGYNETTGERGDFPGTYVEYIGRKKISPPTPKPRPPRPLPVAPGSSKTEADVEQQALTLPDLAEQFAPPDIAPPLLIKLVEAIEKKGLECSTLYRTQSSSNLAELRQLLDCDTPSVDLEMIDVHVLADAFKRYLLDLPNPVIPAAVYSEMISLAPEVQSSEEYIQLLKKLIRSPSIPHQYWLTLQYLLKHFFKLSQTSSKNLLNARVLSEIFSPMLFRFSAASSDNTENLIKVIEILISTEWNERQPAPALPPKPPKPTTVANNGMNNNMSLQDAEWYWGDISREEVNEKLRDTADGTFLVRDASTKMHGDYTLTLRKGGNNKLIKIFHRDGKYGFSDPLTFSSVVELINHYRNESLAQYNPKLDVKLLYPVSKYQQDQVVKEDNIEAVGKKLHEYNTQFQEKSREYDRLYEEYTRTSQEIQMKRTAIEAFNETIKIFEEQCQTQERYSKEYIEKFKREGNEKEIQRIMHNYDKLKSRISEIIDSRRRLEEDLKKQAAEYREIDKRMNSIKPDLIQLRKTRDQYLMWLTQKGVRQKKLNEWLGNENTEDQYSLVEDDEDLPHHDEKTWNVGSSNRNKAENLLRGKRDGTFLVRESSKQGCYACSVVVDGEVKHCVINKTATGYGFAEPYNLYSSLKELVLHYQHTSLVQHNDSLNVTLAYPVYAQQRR
T1 sequence (O00329 whole entry): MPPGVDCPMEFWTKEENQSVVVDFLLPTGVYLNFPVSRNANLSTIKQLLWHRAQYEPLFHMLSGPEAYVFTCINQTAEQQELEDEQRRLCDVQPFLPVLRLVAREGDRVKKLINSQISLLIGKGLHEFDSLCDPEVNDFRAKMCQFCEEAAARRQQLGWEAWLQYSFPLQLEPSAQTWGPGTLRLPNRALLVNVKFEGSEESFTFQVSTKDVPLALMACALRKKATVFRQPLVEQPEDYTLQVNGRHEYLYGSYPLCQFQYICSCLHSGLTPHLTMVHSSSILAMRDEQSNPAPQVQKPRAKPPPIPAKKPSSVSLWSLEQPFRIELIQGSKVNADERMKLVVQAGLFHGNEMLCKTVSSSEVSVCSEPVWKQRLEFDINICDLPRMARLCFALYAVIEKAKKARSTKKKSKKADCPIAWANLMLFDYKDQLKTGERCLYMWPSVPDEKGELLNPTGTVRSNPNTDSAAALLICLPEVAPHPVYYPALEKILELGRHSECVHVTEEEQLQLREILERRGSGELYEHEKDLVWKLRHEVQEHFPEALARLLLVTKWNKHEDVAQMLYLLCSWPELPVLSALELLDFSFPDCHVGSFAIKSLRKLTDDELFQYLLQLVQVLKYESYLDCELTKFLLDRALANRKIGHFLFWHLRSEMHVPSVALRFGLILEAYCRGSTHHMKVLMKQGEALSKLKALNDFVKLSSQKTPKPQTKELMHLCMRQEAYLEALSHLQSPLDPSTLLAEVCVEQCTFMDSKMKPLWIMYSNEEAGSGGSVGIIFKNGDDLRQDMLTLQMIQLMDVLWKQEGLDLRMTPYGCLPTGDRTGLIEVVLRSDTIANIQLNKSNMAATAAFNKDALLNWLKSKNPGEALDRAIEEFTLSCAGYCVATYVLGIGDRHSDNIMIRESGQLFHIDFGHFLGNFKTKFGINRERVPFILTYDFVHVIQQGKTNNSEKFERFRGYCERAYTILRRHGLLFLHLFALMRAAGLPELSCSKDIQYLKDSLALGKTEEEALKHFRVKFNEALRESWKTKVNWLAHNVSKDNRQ
T1 sequence (P27986 whole entry partner): as the sequence (P27986 whole entry partner, species assumed) above
T2 sequence (O00329 whole entry, species assumed): as the sequence (O00329 whole entry) above
T2 sequence (P27986 whole entry partner, species assumed): as the sequence (P27986 whole entry partner, species assumed) above
T5 sequence (P42336 whole entry, species assumed): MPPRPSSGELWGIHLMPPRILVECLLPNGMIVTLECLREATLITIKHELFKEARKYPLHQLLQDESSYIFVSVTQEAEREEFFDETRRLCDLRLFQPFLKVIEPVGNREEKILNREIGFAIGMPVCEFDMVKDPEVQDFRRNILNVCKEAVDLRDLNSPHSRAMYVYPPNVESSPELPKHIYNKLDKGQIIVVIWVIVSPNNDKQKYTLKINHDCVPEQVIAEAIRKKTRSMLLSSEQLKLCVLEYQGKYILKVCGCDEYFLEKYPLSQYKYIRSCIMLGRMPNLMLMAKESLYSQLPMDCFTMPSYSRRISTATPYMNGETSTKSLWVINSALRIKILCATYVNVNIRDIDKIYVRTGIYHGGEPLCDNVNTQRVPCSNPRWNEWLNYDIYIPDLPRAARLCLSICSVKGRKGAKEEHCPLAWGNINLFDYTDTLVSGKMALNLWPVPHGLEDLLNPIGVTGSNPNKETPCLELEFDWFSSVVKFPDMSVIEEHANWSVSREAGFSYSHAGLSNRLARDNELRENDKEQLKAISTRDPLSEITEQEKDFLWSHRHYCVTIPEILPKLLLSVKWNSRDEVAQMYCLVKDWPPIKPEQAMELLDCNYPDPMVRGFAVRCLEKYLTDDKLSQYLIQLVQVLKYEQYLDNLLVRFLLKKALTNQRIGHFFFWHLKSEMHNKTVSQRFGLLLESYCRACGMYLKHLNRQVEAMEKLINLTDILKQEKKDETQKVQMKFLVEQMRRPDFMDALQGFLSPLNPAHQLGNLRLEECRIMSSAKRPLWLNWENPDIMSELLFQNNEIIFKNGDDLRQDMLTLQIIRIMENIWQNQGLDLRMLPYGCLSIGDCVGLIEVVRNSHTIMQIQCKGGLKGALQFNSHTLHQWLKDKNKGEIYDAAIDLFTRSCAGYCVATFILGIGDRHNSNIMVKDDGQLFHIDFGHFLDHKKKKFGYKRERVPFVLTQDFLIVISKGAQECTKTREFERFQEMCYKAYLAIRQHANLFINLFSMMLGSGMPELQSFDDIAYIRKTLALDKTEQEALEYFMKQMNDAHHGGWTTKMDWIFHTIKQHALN
T5 sequence (P27986 whole entry partner, species assumed): as the sequence (P27986 whole entry partner, species assumed) above

IC50 [1] [µM]	IC50 [2] [µM]	α/δ ratio [2]	β/δ ratio [2]	γ/δ ratio [2]	IC50 [3] [µM]	IC50 [4] [µM]	IC50 [5] [µM]	α/β ratio [5]	IC50 [6] [µM]	Compound
≤ 0.1	≤ 0.1	B’	D’	C’	> 0.5	0.2 to 0.5	0.2 to 0.5	D’	> 0.5	CC(C)(Cc1ccc(Cl)cc1)Nc1nc(N2CCOCC2)nc(-n2c(C(F)F)nc3ccccc32)n1 [Compound A23, N-(1-(4-chlorophenyl)-2-methylpropan-2-yl)-4-(2-(difluoromethyl)-1H-benzo[d]imidazol-1-yl)-6-morpholino-1,3,5-triazin-2-amine]
≤ 0.1	0.1 to 0.2	D’	C’	D’	> 0.5	0.2 to 0.5	> 0.5	D’	> 0.5	CC(C)(Cc1ccc(Br)cc1)Nc1nc(N2CCOCC2)nc(-n2c(C(F)F)nc3ccccc32)n1 [Compound A24, N-(1-(4-bromophenyl)-2-methylpropan-2-yl)-4-(2-(difluoromethyl)-1H-benzo[d]imidazol-1-yl)-6-morpholino-1,3,5-triazin-2-amine]
≤ 0.1	0.2 to 0.5	D’	A’	D’	> 0.5	> 0.5	> 0.5	D’	> 0.5	COc1ccc(CC(C)(C)Nc2nc(N3CCOCC3)nc(-n3c(C(F)F)nc4ccccc43)n2)cc1 [Compound A25, 4-(2-(difluoromethyl)-1H-benzo[d]imidazol-1-yl)-N-(1-(4-methoxyphenyl)-2-methylpropan-2-yl)-6-morpholino-1,3,5-triazin-2-amine]
–	≤ 0.1	A’	B’	A’	> 0.5	> 0.5	0.1 to 0.2	D’	0.2 to 0.5	CC(C)(Cc1ccccc1-c1ccccc1)Nc1nc(N2CCOCC2)nc(-n2c(C(F)F)nc3ccccc32)n1 [Compound A47, 4-(2-(difluoromethyl)-1H-benzo[d]imidazol-1-yl)-N-(1-(biphenyl-2-yl)-2-methylpropan-2-yl)-6-morpholino-1,3,5-triazin-2-amine]
